Laboratory results from PubChem BioAssay AID248 (DTP/NCI, 2004).
Toxic doses and inconclusive results are not listed.

Tested on: L1210 leukemia ip in BDF1 mice, survival T/C
Assay: NCI In Vivo Anticancer Drug Screen. Data for tumor model L1210 Leukemia (intraperitoneal) in B6D2F1 (BDF1) mice
Details: endpoint: mean survival time, higher = longer survival
Summary of the method: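 Tumor was transplanted into mice, which were then dosed with test compound or vehicle alone. Survival was recorded for each group, and the treated figure was expressed relative to the control figure.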

[1] = dose: 100.0 mg/kg/injection, schedule: Q04DX003 (ip), vehicle: Klucel (hydroxypropylcellulose) (HPC)
[2] = dose: 200.0 mg/kg/injection, schedule: Q04DX003 (ip), vehicle: Klucel (hydroxypropylcellulose) (HPC)
[3] = dose: 400.0 mg/kg/injection, schedule: Q04DX003 (ip), vehicle: Klucel (hydroxypropylcellulose) (HPC)
[4] = dose: 100.0 mg/kg/injection, schedule: Q04DX003 (ip), vehicle: saline with Tween-80
[5] = dose: 200.0 mg/kg/injection, schedule: Q04DX003 (ip), vehicle: saline with Tween-80
[6] = dose: 400.0 mg/kg/injection, schedule: Q04DX003 (ip), vehicle: saline with Tween-80
[7] = dose: 100.0 mg/kg/injection, schedule: Q04DX003 (ip), vehicle: saline
[8] = dose: 200.0 mg/kg/injection, schedule: Q04DX003 (ip), vehicle: saline
[9] = dose: 100.0 mg/kg/injection, schedule: Q01DX009 (ip), vehicle: Klucel (hydroxypropylcellulose) (HPC)
[10] = dose: 100.0 mg/kg/injection, schedule: Q04DX002 (ip), vehicle: Klucel (hydroxypropylcellulose) (HPC)
[11] = dose: 200.0 mg/kg/injection, schedule: Q01DX009 (ip), vehicle: Klucel (hydroxypropylcellulose) (HPC)
[12] = dose: 200.0 mg/kg/injection, schedule: Q04DX002 (ip), vehicle: Klucel (hydroxypropylcellulose) (HPC)
[13] = dose: 400.0 mg/kg/injection, schedule: Q01DX009 (ip), vehicle: Klucel (hydroxypropylcellulose) (HPC)
[14] = dose: 400.0 mg/kg/injection, schedule: Q04DX002 (ip), vehicle: Klucel (hydroxypropylcellulose) (HPC)
[15] = dose: 50.0 mg/kg/injection, schedule: Q04DX003 (ip), vehicle: Klucel (hydroxypropylcellulose) (HPC)
[16] = dose: 50.0 mg/kg/injection, schedule: Q01DX001 (ip), vehicle: carboxymethylcellulose (CMC)
[17] = dose: 100.0 mg/kg/injection, schedule: Q01DX001 (ip), vehicle: carboxymethylcellulose (CMC)
[18] = dose: 200.0 mg/kg/injection, schedule: Q01DX001 (ip), vehicle: carboxymethylcellulose (CMC)
[19] = dose: 400.0 mg/kg/injection, schedule: Q01DX001 (ip), vehicle: carboxymethylcellulose (CMC)
[20] = dose: 400.0 mg/kg/injection, schedule: Q04DX003 (ip), vehicle: saline

O=[N+]([O-])c1ccc2c(c1)/C(=N/O)CCC2
T/C (dose: 100.0 mg/kg/injection, schedule: Q01DX009 (ip), vehicle: saline with Tween-80): 110 % of control | T/C [1]: 96 % of control | T/C (dose: 200.0 mg/kg/injection, schedule: Q01DX009 (ip), vehicle: saline with Tween-80): 92 % of control | T/C [2]: 91 % of control | T/C (dose: 400.0 mg/kg/injection, schedule: Q01DX009 (ip), vehicle: saline with Tween-80): 90 % of control | T/C [3]: 104 % of control

O=C(CC(O)(C(F)(F)F)C(F)(F)F)c1cc(Cl)ccc1Cl
T/C [4]: 112 % of control | T/C [5]: 105 % of control | T/C [6]: 103 % of control

CC/C=C(CC)/C(CC)=C(\Br)CC
T/C [7]: 94 % of control | T/C [8]: 92 % of control

CN(C)[S+](C)(=O)/C=C(/[O-])c1ccccc1 (configuration not stated)
T/C (dose: 62.5 mg/kg/injection, schedule: Q01DX001 (ip), vehicle: saline): 106 % of control | T/C (dose: 125.0 mg/kg/injection, schedule: Q01DX001 (ip), vehicle: saline): 102 % of control | T/C (dose: 250.0 mg/kg/injection, schedule: Q01DX001 (ip), vehicle: saline): 102 % of control

CCCCS(=O)(=O)Cc1ccccc1
T/C [9]: 98 % of control | T/C [10]: 100 % of control | T/C [11]: 103 % of control | T/C [12]: 96 % of control | T/C [13]: 98 % of control | T/C [14]: 93 % of control

O=C(NCC(S)c1ccc(Cl)cc1)C(F)(F)F (configuration not stated)
T/C [5]: 88 % of control | T/C [6]: 86 % of control

CC(=O)Nc1c(Cc2cc(O)c3ncccc3c2NC(C)=O)cc(O)c2ncccc12
T/C (dose: 75.0 mg/kg/injection, schedule: Q01DX001 (ip), vehicle: other): 96 % of control | T/C (dose: 150.0 mg/kg/injection, schedule: Q01DX001 (ip), vehicle: other): 100 % of control | T/C (dose: 300.0 mg/kg/injection, schedule: Q01DX001 (ip), vehicle: other): 103 % of control

CCC(CC)CC1CN2CCc3cc(OC)c(OC)cc3C2CC1(O)CC (configuration not stated)
T/C (dose: 3.12 mg/kg/injection, schedule: Q01DX009 (ip), vehicle: Klucel (hydroxypropylcellulose) (HPC)): 93 % of control | T/C (dose: 6.25 mg/kg/injection, schedule: Q01DX009 (ip), vehicle: Klucel (hydroxypropylcellulose) (HPC)): 97 % of control | T/C (dose: 12.5 mg/kg/injection, schedule: Q01DX009 (ip), vehicle: Klucel (hydroxypropylcellulose) (HPC)): 109 % of control | T/C (dose: 25.0 mg/kg/injection, schedule: Q01DX009 (ip), vehicle: Klucel (hydroxypropylcellulose) (HPC)): 119 % of control | T/C (dose: 25.0 mg/kg/injection, schedule: Q04DX003 (ip), vehicle: Klucel (hydroxypropylcellulose) (HPC)): 115 % of control | T/C (dose: 50.0 mg/kg/injection, schedule: Q01DX009 (ip), vehicle: Klucel (hydroxypropylcellulose) (HPC)): 97 % of control | T/C [15]: 99 % of control

CC(C)CCC[C@@H](C)[C@H]1CC[C@H]2[C@@H]3CC[C@H]4C[C@H](NC(=O)N(CCF)N=O)CC[C@]4(C)[C@H]3CC[C@]12C
T/C (dose: 8.0 mg/kg/injection, schedule: Q01DX001 (ip), vehicle: other): 102 % of control | T/C (dose: 16.0 mg/kg/injection, schedule: Q01DX001 (ip), vehicle: other): 103 % of control | T/C (dose: 31.0 mg/kg/injection, schedule: Q01DX001 (ip), vehicle: other): 108 % of control | T/C (dose: 62.0 mg/kg/injection, schedule: Q01DX001 (ip), vehicle: other): 116 % of control | T/C (dose: 250.0 mg/kg/injection, schedule: Q01DX001 (ip), vehicle: other): 116 % of control | T/C (dose: 375.0 mg/kg/injection, schedule: Q01DX001 (ip), vehicle: other): 122 % of control | T/C (dose: 500.0 mg/kg/injection, schedule: Q01DX001 (ip), vehicle: other): 124 % of control | T/C (dose: 750.0 mg/kg/injection, schedule: Q01DX001 (ip), vehicle: other): 170 % of control | T/C (dose: 1000.0 mg/kg/injection, schedule: Q01DX001 (ip), vehicle: other): 153 % of control | T/C (dose: 1500.0 mg/kg/injection, schedule: Q01DX001 (ip), vehicle: other): 188 % of control | T/C (dose: 2000.0 mg/kg/injection, schedule: Q01DX001 (ip), vehicle: other): 202 % of control | T/C (dose: 2500.0 mg/kg/injection, schedule: Q01DX001 (ip), vehicle: other): 252 % of control

O=C(NCCCC1C2CCC(C2)C1CNC(=O)Nc1cccc(Cl)c1)Nc1cccc(Cl)c1 (configuration not stated)
T/C [4]: 91 % of control | T/C [5]: 92 % of control | T/C [6]: 87 % of control

COc1ccc(CCC(=O)c2ccccc2)cc1
T/C [15]: 98 % of control | T/C [1]: 104 % of control | T/C [2]: 107 % of control

C[CH2][Pb]([CH2]C)([CH2]C)[n]1ccnc1
T/C [10]: 95 % of control | T/C [12]: 95 % of control | T/C [14]: 100 % of control

COc1ccccc1CN1CCCOP1(=O)Nc1ccccc1 (configuration not stated)
T/C [16]: 91 % of control | T/C [17]: 91 % of control | T/C [18]: 93 % of control | T/C [19]: 93 % of control

O=C(C(=O)c1ccco1)c1ccccc1
T/C (dose: 75.0 mg/kg/injection, schedule: Q01DX001 (ip), vehicle: carboxymethylcellulose (CMC)): 100 % of control | T/C (dose: 150.0 mg/kg/injection, schedule: Q01DX001 (ip), vehicle: carboxymethylcellulose (CMC)): 102 % of control | T/C (dose: 300.0 mg/kg/injection, schedule: Q01DX001 (ip), vehicle: carboxymethylcellulose (CMC)): 97 % of control

CNC(=O)N1CC(C)OC(C)C1 (configuration not stated)
T/C [7]: 115 % of control | T/C (dose: 200.0 mg/kg/injection, schedule: Q01DX009 (ip), vehicle: saline): 92 % of control | T/C [8]: 105 % of control | T/C (dose: 400.0 mg/kg/injection, schedule: Q01DX009 (ip), vehicle: saline): 107 % of control | T/C [20]: 101 % of control

O=C(O)C1C2CC(C(Br)C2Br)C1C(=O)O (configuration not stated)
T/C (dose: 100.0 mg/kg/injection, schedule: Q01DX001 (ip), vehicle: saline): 98 % of control | T/C [9]: 95 % of control | T/C (dose: 100.0 mg/kg/injection, schedule: Q01DX009 (ip), vehicle: acetone): 98 % of control | T/C [1]: 100 % of control | T/C [7]: 94 % of control | T/C (dose: 200.0 mg/kg/injection, schedule: Q01DX001 (ip), vehicle: saline): 95 % of control | T/C [11]: 97 % of control | T/C (dose: 200.0 mg/kg/injection, schedule: Q01DX009 (ip), vehicle: acetone): 93 % of control | T/C [2]: 103 % of control | T/C [8]: 94 % of control | T/C (dose: 400.0 mg/kg/injection, schedule: Q01DX001 (ip), vehicle: saline): 96 % of control | T/C [13]: 98 % of control | T/C (dose: 400.0 mg/kg/injection, schedule: Q01DX009 (ip), vehicle: acetone): 104 % of control | T/C [3]: 105 % of control | T/C [20]: 91 % of control

Nc1nnnn1-c1ccc(O)cc1
T/C (dose: 100.0 mg/kg/injection, schedule: Q01DX001 (ip), vehicle: saline with Tween-80): 101 % of control | T/C (dose: 200.0 mg/kg/injection, schedule: Q01DX001 (ip), vehicle: saline with Tween-80): 103 % of control | T/C (dose: 400.0 mg/kg/injection, schedule: Q01DX001 (ip), vehicle: saline with Tween-80): 99 % of control

Cc1ccccc1C1=CCCCC1
T/C [16]: 87 % of control | T/C [17]: 104 % of control | T/C [18]: 96 % of control | T/C [19]: 97 % of control

Nc1ccc(N)cc1 (tested in a mixture with another compound)
T/C (dose: 50.0 mg/kg/injection, schedule: Q01DX009 (ip), vehicle: DMSO): 103 % of control | T/C (dose: 100.0 mg/kg/injection, schedule: Q01DX009 (ip), vehicle: DMSO): 91 % of control | T/C (dose: 100.0 mg/kg/injection, schedule: Q04DX003 (ip), vehicle: DMSO): 91 % of control | T/C (dose: 200.0 mg/kg/injection, schedule: Q04DX003 (ip), vehicle: DMSO): 94 % of control

C=C1C(=O)OCC1C(=O)O (configuration not stated)
T/C (dose: 75.0 mg/kg/injection, schedule: Q01DX001 (ip), vehicle: saline): 98 % of control
